Assay results taken from PMC11574061, “Experimental and computational studies on possibility of using glucose diazacrown cryptand as a carrier for anticancer drugs busulfan and lomustine” (Scientific Reports, 2024).
In brackets after ≈: the same amount, converted by molar mass. Where two headings read alike, the source gives them in different places.

What was measured:
[1] = system: normal breast epithelial cells MCF-10 A; test: MTT cytotoxicity assay, MCF-10 A; type: cell-based, human; conditions: 72 h
Protocol: (§1) Breast cancer cells MCF-7, colon cancer cells HT-29, normal breast epithelial cells MCF-10 A and normal colon fibroblasts CCD-18Co were used as a cell model for testing the effect of compounds on the viability of cells. The cells were seeded in Dulbecco’s Modified Eagle Medium (DMEM) medium in 96-well plates and incubated for 24 h in a 5% CO2 atmosphere at 37 °C. MCF-10 A cells were grown in a medium supplemented with 0.4% bovine pituitary extract (BPE), 3 ng ml^− 1 hEGF, 5 µg ml^− 1 insulin, 0.5 µg ml^− 1 hydrocortisone and 100ng mL^− 1 cholera toxin. After that, cells were treated with different concentrations: 2.5, 10, 25, 50, 100, and 200 µM, of compounds for 72 h. Busulfan and lomustine were freshly dissolved in DMSO immediately before cell treatment. The solution of other compounds (lyophilized) were prepared in 30% DMSO. Then, a series of dilutions were prepared. The final concentrations of drugs, cryptand and complexes were in range 2.5–200 µM. The final concentration of DMSO diluted in culture medium was 0.2% for all experiments. The controls (without drugs) were treated with 0.2% DMSO. In this concentration DMSO was not cytotoxic for cells which was confirmed by preliminary experiments. The viability of cells treated with the tested compounds was assessed by measuring the ability of live cells to metabolize 3-(4,5-dimethylthiazolo-2-yl)-2,5-diphenyl tetrazolium bromide (MTT) to formazan, using a standard protocol. Briefly, after incubation with compounds, the medium of each well was discarded, cells were washed with PBS, and then 100 µL of fresh media with 10 µL MTT solution (5 mg mL^− 1 in PBS) was added to each well. After 4 h incubation at 37 °C, the produced formazan was solubilized by the addition of DMSO, and the absorbance of each well was determined at 570 nm using an ELISA reader. The results were expressed as the mean of at least four replicates as a percentage of control (taken as 100% - cells).

[2] = system: breast cancer cells MCF-7; test: MTT cytotoxicity assay, MCF-7; type: cell-based, human
Protocol: as §1

colon cancer cells HT-29 = test: MTT cytotoxicity assay, HT-29; type: cell-based, human
Protocol: as §1

[3] = system: normal colon fibroblasts CCD-18Co; test: MTT cytotoxicity assay, CCD-18Co; type: cell-based, human; conditions: 72 h
Protocol: as §1

[4] = Approximate water solubility, stepwise addition of water; type: physicochemical; conditions: thermodynamic from solid; in water; estimated approximately, 1 mg substance, water added in 0.1 ml portions until clear
Protocol: The complexes were prepared according to the procedure described in a previous publication for the complex of another cryptand with BSF[7]. A solution of 2.5 mg (0.01 mmol) BSF in 0.25 ml DMSO was added under argon to a solution of 9.8 mg (0.01 mmol) cryptand 9 (L1) in 12.5 ml water at room temperature. […] The water solubility of the pure cryptand L1, both drugs and their complexes was estimated approximately using a simple method. For each compound separately, 1 mg of the substance was placed in a vial and water was added to it in portions of 0.1 ml. After each addition, the mixture was stirred for 10 min, and the clarity of the solution was checked with a magnifying glass. Stirring was stopped when the solution became completely clear.

[5] = MCF-10 A normal breast cells, MTT, 2.5–200 µM, mean ± SD, – = IC50 not reached in the range used
[6] = MCF-7 breast cancer cells, 72 h, MTT, 2.5–200 µM, mean ± SD, – = IC50 not reached in the range used
[7] = HT-29 colon cancer cells, 72 h, MTT, 2.5–200 µM, mean ± SD, – = IC50 not reached in the range used
[8] = CCD-18Co normal colon cells, MTT, 2.5–200 µM, mean ± SD, – = IC50 not reached in the range used
[9] = Homo sapiens, MCF-10A, read-out: IC50
[10] = Homo sapiens, MCF7, 72 h, read-out: IC50
[11] = Homo sapiens, HT-29, 72 h, read-out: IC50
[12] = Homo sapiens, CCD-18Co, read-out: IC50

Row | Compound | IC50 [1, 5] | IC50 [2, 6] | IC50 (colon cancer cells HT-29; [7]) | IC50 [3, 8] | solubility [4] [mg/mL] | IC50 [1, 9] [µM] | IC50 [2, 10] [µM] | IC50 (colon cancer cells HT-29; [11]) [µM] | IC50 [3, 12] [µM]
1 | O=C1NCC2OC(NC(=O)N3CCOCCOCCN(CCOCCOCC3)C(=O)NC3OC(CNC(=O)N4CCOCCOCCN1CCOCCOCC4)C(O)C(O)C3O)C(O)C(O)C2O (stereo not shown) [L1] | had not been reached | had not been reached | had not been reached | had not been reached | 20 (≈ 20.3 mM) |  |  |  | 
2 | CS(=O)(=O)OCCCCOS(C)(=O)=O [BSF, butane-1,4-diyl dimethanesulfonate] | not achieved | not achieved | not achieved | not achieved | 0.13 | > 200 | > 200 | > 200 | > 200
3 | O=NN(CCCl)C(=O)NC1CCCCC1 [CCNU, 1-(2-chloroethyl)-3-cyclohexyl-1-nitrosourea] |  |  |  |  | 0.05 (≈ 0.214 mM) | 48.9 ± 5.4 | 8.41 ± 1.6 | 8.91 ± 1.5 | 56.2 ± 7.8
